Activity calls are given as the source filed them. The rule behind the calls is not given here.
Assays:
PC-3M = assay: Antiproliferative activity against human PC-3M cells assessed as inhibition of cell growth at 1 to 10 uM incubated for 5 days by WST-8 assay; format: functional, cell-based; conditions: dose 1-10 µM, time 5.0 day
[1] = target: Protein cereblon/E3 ubiquitin-protein ligase RING2 (Homo sapiens, UniProt Q96SW2+Q99496); assay: PROTAC activity at CRBN/RING1B in human K562 cells assessed as degradation of RING1B protein expression at 10 uM measured after 4 hrs by Western blotting analysis; format: cell-based
[2] = target: Protein cereblon/Polycomb protein SUZ12 (Homo sapiens) (UniProt Q15022+Q96SW2); assay: PROTAC activity at CRBN/SUZ12 in human PC-3M cells assessed as degradation of SUZ12 protein expression at 0.2 to 5 uM incubated for 24 hrs by Western blotting analysis; format: cell-based; conditions: dose 0.2-5 µM
Protein cereblon/Polycomb protein SUZ12 (Homo sapiens), sequence (Q15022 whole entry, looked up): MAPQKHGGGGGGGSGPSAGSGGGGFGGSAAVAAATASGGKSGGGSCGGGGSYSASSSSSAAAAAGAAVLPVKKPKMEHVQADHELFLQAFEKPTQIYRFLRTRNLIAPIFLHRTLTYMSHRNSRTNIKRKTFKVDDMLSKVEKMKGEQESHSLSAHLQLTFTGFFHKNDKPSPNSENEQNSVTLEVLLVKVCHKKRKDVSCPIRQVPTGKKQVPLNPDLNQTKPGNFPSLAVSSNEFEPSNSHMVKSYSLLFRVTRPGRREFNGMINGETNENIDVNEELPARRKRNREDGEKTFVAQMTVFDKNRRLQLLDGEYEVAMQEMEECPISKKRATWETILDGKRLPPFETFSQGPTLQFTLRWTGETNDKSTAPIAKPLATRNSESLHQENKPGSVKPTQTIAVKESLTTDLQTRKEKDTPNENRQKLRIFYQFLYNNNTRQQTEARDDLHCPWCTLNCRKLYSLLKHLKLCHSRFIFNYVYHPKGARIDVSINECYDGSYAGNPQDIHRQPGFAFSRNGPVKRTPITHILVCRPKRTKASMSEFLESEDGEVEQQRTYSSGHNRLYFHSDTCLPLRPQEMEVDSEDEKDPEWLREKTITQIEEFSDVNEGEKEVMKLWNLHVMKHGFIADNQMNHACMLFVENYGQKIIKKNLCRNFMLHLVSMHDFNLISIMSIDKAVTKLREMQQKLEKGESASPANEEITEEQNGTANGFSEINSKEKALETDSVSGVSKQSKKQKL
Protein cereblon/Polycomb protein SUZ12 (Homo sapiens), sequence (Q96SW2 whole entry, looked up): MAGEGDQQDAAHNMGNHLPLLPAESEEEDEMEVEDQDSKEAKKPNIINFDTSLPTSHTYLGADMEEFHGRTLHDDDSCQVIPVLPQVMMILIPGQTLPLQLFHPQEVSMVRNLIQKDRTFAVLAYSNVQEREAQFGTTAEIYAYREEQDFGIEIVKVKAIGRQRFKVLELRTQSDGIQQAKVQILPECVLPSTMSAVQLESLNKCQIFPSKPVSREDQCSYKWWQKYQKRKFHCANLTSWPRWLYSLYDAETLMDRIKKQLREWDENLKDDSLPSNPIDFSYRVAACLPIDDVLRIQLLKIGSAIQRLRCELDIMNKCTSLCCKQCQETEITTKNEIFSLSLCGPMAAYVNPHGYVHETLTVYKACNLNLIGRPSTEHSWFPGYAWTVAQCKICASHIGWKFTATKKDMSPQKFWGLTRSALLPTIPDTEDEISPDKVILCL

Protein cereblon/E3 ubiquitin-protein ligase RING2, sequence (Q96SW2 whole entry): as the sequence (Q96SW2 whole entry, looked up) above
Protein cereblon/E3 ubiquitin-protein ligase RING2, sequence (Q99496 2-336 partner limits assumed): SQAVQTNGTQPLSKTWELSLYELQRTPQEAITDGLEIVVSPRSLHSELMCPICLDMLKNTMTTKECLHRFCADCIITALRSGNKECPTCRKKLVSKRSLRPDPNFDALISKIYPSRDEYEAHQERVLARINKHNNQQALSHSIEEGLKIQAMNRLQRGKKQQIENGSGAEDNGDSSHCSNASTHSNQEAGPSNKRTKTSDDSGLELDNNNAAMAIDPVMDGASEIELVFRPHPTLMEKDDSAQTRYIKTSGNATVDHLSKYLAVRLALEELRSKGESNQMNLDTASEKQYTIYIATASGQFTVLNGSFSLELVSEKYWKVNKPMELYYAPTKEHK

## O=C(CNc1cccc2c1C(=O)N(C1CCC(=O)NC1=O)C2=O)NCCCCN1CCN(c2ccc(-c3cnc(NCc4ccco4)n4cnnc34)cc2)CC1 (stereo not drawn)
PC-3M
  Activity: Active
[1]
  Activity: Active
[2]
  Activity: inactive

From ChEMBL document CHEMBL5543147, “Discovery and Characterization of a Novel Cereblon-Recruiting PRC1 Bridged PROTAC Degrader” (J Med Chem, 2024)
